Laboratory results: patent US20150361087A1, “ANTIVIRAL COMPOUNDS” (Gilead Sciences, Inc., priority 2014, published 2015)
Read-outs that look alike come from different tables or passages of the source.

What was measured:
[1] = system: HCV 1b RLuc replicon cells (genotype 1b Conl replicon); experiment: Renilla luciferase HCV replicon reporter assay, genotype 1b; type: cell-based; details: stable replicon cells, 72 hours, RLuc readout
Procedure: (§1) Evaluation of cell-based anti-HCV activity: Antiviral potency (EC50) was determined using a Renilla luciferase (RLuc)-based HCV replicon reporter assay. To perform the assay for genotype 1 and 2a JFH-1, stable HCV 1a RLuc replicon cells (harboring a dicistronic genotype 1a H77 replicon that encodes a RLuc reporter), stable HCV 1b RLuc replicon cells (harboring a dicistronic genotype 1b Conl replicon that encodes a RLuc reporter), or stable HCV 2a JFH-1 Rluc replicon cells (harboring a dicistronic genotype 2a JFH-1 replicon that encodes a RLuc reporter; with L31 present in NS5A) were dispensed into 384-well plates for EC50 assays. To perform the assay for genotype 2a (with M31 present in NS5A) or 2b, NS5A chimeric genotype 2a JFH-1 replicons that encodes a RLuc-Neo reporter and either genotype 2a J6 strain NS5A gene or genotype 2b MD2b-1 strain NS5A gene (both with M31 present) respectively, were either transiently transfected (t) into Huh-Lunet cells or were established as stably replicating replicon cells (s) is provided. Either cells were dispensed into 384-well plates for EC50 assays. To perform the assay for genotype 3 and 4, NS5A chimeric genotype 1b Conl replicons that encodes a Pi-RLuc reporter and either genotype 3a S52 strain NS5A gene or genotype 4a ED43 strain NS5A gene respectively, were transiently transfected (t) into Huh-Lunet cells, which were subsequently dispensed into 384-well plates. Compounds were dissolved in DMSO at a concentration of 10 mM and diluted in DMSO either manually or using an automated pipeting instrument. Serially 3-fold diluted compounds were either manually mixed with cell culture media and added to the seeded cells or directly added to the cells using an automated instrument. DMSO was used as a negative (solvent; no inhibition) control, and the protease inhibitor ITMN-191 was included at a concentration >100×EC50 as a positive control. 72 hours later, cells were lysed and Renilla luciferase activity quantified as recommended by the manufacturer (Promega-Madison, Wis.). Non-linear regression was performed to calculate EC50 values.

[2] = system: HCV 1a RLuc replicon cells (genotype 1a H77 replicon); experiment: Renilla luciferase HCV replicon reporter assay, genotype 1a; type: cell-based; details: stable replicon cells, 72 hours, RLuc readout
Procedure: as §1

[3] = system: NS5A chimeric genotype 1b Conl replicon with genotype 3a S52 strain NS5A gene; experiment: Renilla luciferase HCV replicon reporter assay, genotype 3a; type: cell-based
Procedure: as §1

[4] = system: HCV 2a JFH-1 Rluc replicon cells (L31 present in NS5A); experiment: Renilla luciferase HCV replicon reporter assay, genotype 2a JFH-1; type: cell-based; details: stable replicon cells, 72 hours
Procedure: as §1

[5] = system: Y93H in genotype 1a NS5A (1a Pi-Rluc replicon); experiment: Replicon assay against resistance mutant 1a Y93H; type: cell-based, HCV
Procedure: as §1, with “Compounds were dissolved in DMSO at a concentration of 10 mM and diluted in DMSO either manually or using an automated pipeting instrument. Serially 3-fold diluted compounds were either manually mixed with cell culture media and added to the seeded cells or directly added to the cells using an automated instrument. DMSO was used as a negative (solvent; no inhibition) control, and the protease inhibitor ITMN-191 was included at a concentration >100×EC50 as a positive control.” left out, “Non-linear regression was performed to calculate EC50 values.” left out
(§2) To determine the antiviral potency (EC50) against resistance mutants, resistance mutations, including Q30R, Q30E, Y93H, and Y93N in genotype 1a NS5A, and L31V/Y93H in genotype 1b NS5A were introduced individually into either 1a Pi-Rluc or 1b Pi-Rluc replicons by site directed mutagenesis. Replicon RNA of each resistant mutant was transiently transfected into Huh-7-derived cured-51 cells and antiviral potency was determined on these transfected cells as described above.

3a Y93H = experiment: Replicon assay against resistance mutant 3a Y93H; type: cell-based, HCV
[6] = system: Y93N in genotype 1a NS5A (1a Pi-Rluc replicon); experiment: Replicon assay against resistance mutant 1a Y93N; type: cell-based, HCV
Procedure: as §1, with “Compounds were dissolved in DMSO at a concentration of 10 mM and diluted in DMSO either manually or using an automated pipeting instrument. Serially 3-fold diluted compounds were either manually mixed with cell culture media and added to the seeded cells or directly added to the cells using an automated instrument. DMSO was used as a negative (solvent; no inhibition) control, and the protease inhibitor ITMN-191 was included at a concentration >100×EC50 as a positive control.” left out, “Non-linear regression was performed to calculate EC50 values.” left out
as §2

[7] = system: NS5A chimeric genotype 2a JFH-1 replicon with genotype 2b MD2b-1 strain NS5A gene (M31); experiment: Renilla luciferase HCV replicon reporter assay, genotype 2b; type: cell-based
Procedure: as §1

[8] = system: NS5A chimeric genotype 1b Conl replicon with genotype 4a ED43 strain NS5A gene; experiment: Renilla luciferase HCV replicon reporter assay, genotype 4a; type: cell-based; details: Hepatitis C virus, 72 h, read-out: 4a (s) (nM)
Procedure: (§3) Evaluation of cell-based anti-HCV activity: Antiviral potency (EC50) was determined using a Renilla luciferase (RLuc)-based HCV replicon reporter assay. To perform the assay for genotype 1 and 2a JFH-1, stable HCV 1a RLuc replicon cells (harboring a dicistronic genotype 1a H77 replicon that encodes a RLuc reporter), stable HCV 1b RLuc replicon cells (harboring a dicistronic genotype 1b Conl replicon that encodes a RLuc reporter), or stable HCV 2a JFH-1 Rluc replicon cells (harboring a dicistronic genotype 2a JFH-1 replicon that encodes a RLuc reporter; with L31 present in NS5A) were dispensed into 384-well plates for EC50 assays. To perform the assay for genotype 2a (with M31 present in NS5A) or 2b, NS5A chimeric genotype 2a JFH-1 replicons that encodes a RLuc-Neo reporter and either genotype 2a J6 strain NS5A gene or genotype 2b MD2b-1 strain NS5A gene (both with M31 present) respectively, were either transiently transfected (t) into Huh-Lunet cells or were established as stably replicating replicon cells (s) is provided. Either cells were dispensed into 384-well plates for EC50 assays. […] 72 hours later, cells were lysed and Renilla luciferase activity quantified as recommended by the manufacturer (Promega-Madison, Wis.). […]

[9] = system: Q30E in genotype 1a NS5A (1a Pi-Rluc replicon); experiment: Replicon assay against resistance mutant 1a Q30E; type: cell-based, HCV; details: transiently transfected Huh-7-derived cured-51 cells
Procedure: (§4) Evaluation of cell-based anti-HCV activity: Antiviral potency (EC50) was determined using a Renilla luciferase (RLuc)-based HCV replicon reporter assay. To perform the assay for genotype 1 and 2a JFH-1, stable HCV 1a RLuc replicon cells (harboring a dicistronic genotype 1a H77 replicon that encodes a RLuc reporter), stable HCV 1b RLuc replicon cells (harboring a dicistronic genotype 1b Conl replicon that encodes a RLuc reporter), or stable HCV 2a JFH-1 Rluc replicon cells (harboring a dicistronic genotype 2a JFH-1 replicon that encodes a RLuc reporter; with L31 present in NS5A) were dispensed into 384-well plates for EC50 assays. […] 72 hours later, cells were lysed and Renilla luciferase activity quantified as recommended by the manufacturer (Promega-Madison, Wis.). […]
as §2

[10] = design: species or system Sprague-Dawley (SD) rats; details: in vivo
Procedure: IV and PO Single Dose Pharmacokinetic Studies in SD Rats: The pharmacokinetics of selected compounds was characterized in male Sprague-Dawley (SD) rats (250-300 g). In this study, two groups of naïve purebred SD rats (N=3 per group, fasted over night) received the selected compound either as an intravenous (IV) infusion (1 mg/kg over 30 minutes) via the jugular vein or by oral gavage (2 mg/kg). The intravenous (IV) dosing vehicle was 5% ethanol, 35% polyethylene glycol 400 (PEG 400) and 60% water pH 2.0. The oral dosing vehicle was 5% ethanol, 55% PEG 400 and 40% citrate buffer pH 2.2.
Serial blood samples (approximately 0.3 mL each) were collected from jugular vein or other suitable vein at specified time points. […]
A bioanalytical method utilizing high performance liquid chromatography coupled to tandem mass spectrometry (LC/MS/MS) was developed for analysis of the selected compound in rat plasma. Detection was performed using selected reaction monitoring (SRM); Ions representing the precursor (M+H) ^+ species was selected in quadrupole 1 (Q1) and collided with argon gas in the collision cell (Q2) to generate specific product ion, which was subsequently monitored by quadrupole 3 (Q3). Standard curve and quality control samples were prepared in male rat plasma and processed in the same way as the test samples to generate quantitative data. […]

[11] = target: NS5A chimeric genotype 2a JFH-1 replicon with genotype 2a J6 strain NS5A gene (M31); experiment: Renilla luciferase HCV replicon reporter assay, genotype 2a J6; type: cell-based; details: transiently transfected (t) into Huh-Lunet cells, 72 hours
Procedure: as §3

[12] = system: L31V/Y93H in genotype 1b NS5A (1b Pi-Rluc replicon); experiment: Replicon assay against resistance mutant 1b L31V/Y93H; type: cell-based, HCV; details: transiently transfected Huh-7-derived cured-51 cells
Procedure: as §4, §2

[13] = Hepatitis C virus, 72 h, read-out: 3a (nM)
[14] = Hepatitis C virus, read-out: 1a Y93H (nM)
[15] = Hepatitis C virus, read-out: 3a Y93H (nM)
[16] = Hepatitis C virus, read-out: 1a Y93N (nM)
[17] = Hepatitis C virus, 72 h, read-out: 2b (s) (nM)

| SMILES | EC50 ([1]; Hepatitis C virus) | EC50 ([2]; Hepatitis C virus) | EC50 [3, 13] | EC50 ([4]; Hepatitis C virus) | EC50 [5, 14] | EC50 (3a Y93H; [15]) | EC50 [6, 16] | EC50 [7, 17] | EC50 [8] | other results |
| --- | --- | --- | --- | --- | --- | --- | --- | --- | --- | --- |
| COC(=O)N[C@H](C(=O)N1[C@@H](C)CC[C@H]1c1ncc(-c2cc3c4c(c2)OCc2cc(-c5cnc([C@@H]6CC[C@H](C)N6C(=O)[C@@H](NC(=O)OC)[C@H]6C[C@@H](C)O[C@@H](C)C6)[nH]5)cc(c2-4)OC3)[nH]1)C1C[C@@H](C)O[C@@H](C)C1 (stereo partly drawn) [Compound 16, dimethyl (r,S,R,1S,1′S)-2,2′-((2S,2′S,5S,5′S)-5,5′-(5,5′-(5,10-dihydrochromeno[5,4,3-cde]chromene-2,7-diyl)bis(1H-imidazole-5,2-diyl))bis(2-methylpyrrolidine-5,1-diyl))bis(1-((2R,4r,6S)-2,6-dimethyltetrahydro-2H-pyran-4-yl)-2-oxoethane-2,1-diyl)dicarbamate] | 0.037 nM | 0.043 nM | 0.051 nM | 0.013 nM | 0.356 nM | 0.145 nM | 0.685 nM | 0.054 nM | 0.025 nM | – |
| COC(=O)N[C@H](C(=O)N1CCC[C@H]1c1ncc(-c2cc3c4c(c2)OCc2cc(-c5cnc([C@@H]6CCCN6C(=O)[C@@H](NC(=O)OC)C6C[C@@H](C)O[C@H](C)C6)[nH]5)cc(c2-4)OC3)[nH]1)C1C[C@@H](C)O[C@H](C)C1 (stereo partly drawn) [Compound 15, dimethyl ((1S,1′S)-((2S,2′S)-((5,10-dihydrochromeno [5,4,3-cde]chromene-2,7-diyl)bis(1H-imidazole-5,2-diyl))bis(pyrrolidine-2,1-diyl))bis(1-((2R,6R)-2,6-dimethyltetrahydro-2H-pyran-4-yl)-2-oxoethane-2,1-diyl))dicarbamate] | 0.195 nM | 0.18 nM | 0.199 nM | 0.024 nM | 0.237 nM | 0.361 nM | 0.87 nM | 0.143 nM | 0.07 nM | – |
| COC(=O)N[C@H](C(=O)N1[C@@H](C)CC[C@H]1c1ncc(-c2cc3c4c(c2)OCc2cc(-c5cnc([C@@H]6CC[C@H](C)N6C(=O)[C@@H](NC(=O)OC)C6C[C@@H](C)O[C@H](C)C6)[nH]5)cc(c2-4)OC3)[nH]1)C1C[C@@H](C)O[C@H](C)C1 (stereo partly drawn) [Compound 14, dimethyl (R,R,1S,1′S)-2,2′-((2S,2′S,5S,5′S)-5,5′-(5,5′-(5,10-dihydrochromeno[5,4,3-cde]chromene-2,7-diyl)bis(1H-imidazole-5,2-diyl))bis(2-methylpyrrolidine-5,1-diyl))bis(1-((2R,6R)-2,6-dimethyltetrahydro-2H-pyran-4-yl)-2-oxoethane-2,1-diyl)dicarbamate] | – | – | – | – | – | – | – | – | – | EC50 [1]: 0.054 nM; EC50 [9]: 0.11 nM; EC50 [2]: 0.049 nM; Rat % F [10]: 15%; EC50 ([3]; transiently transfected into Huh-Lunet cells, 72 hours, read-out: 3a): 0.04 nM; EC50 [11]: 0.014 nM; EC50 [4]: 0.011 nM; EC50 ([5]; transiently transfected Huh-7-derived cured-51 cells, read-out: 1a Y93H): 0.063 nM; EC50 [12]: 0.075 nM; EC50 (3a Y93H; resistance mutant replicon, read-out: 3a Y93H): 0.157 nM; EC50 ([6]; transiently transfected Huh-7-derived cured-51 cells, read-out: 1a Y93N): 0.229 nM; EC50 ([7]; transiently transfected (t) into Huh-Lunet cells, 72 hours, read-out: 2b (t)): 0.038 nM |
